Patent US6737383B1, “Herbicidal oxadiazolidines” (priority 1999, dated 2004)

Columns and labels:
morningglory = experiment: Test B pre/postemergence morningglory; assay type: in vivo, Ipomoea hederacea; conditions: for Morningglory plant response rating: scale of 0 to 10 where 0 is no effect and 10 is complete control
Summary of the method: (§1)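 Test chemicals in a non-phytotoxic solvent mixture with surfactant were sprayed preemergence onto planted seeds and postemergence onto plants 2 to 18 cm tall (1- to 4-leaf stage). After twelve to sixteen days in a greenhouse, injury was visually rated against untreated controls from 0 (no effect) to 10 (complete control).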

rape = experiment: Test B pre/postemergence rape; assay type: in vivo, Brassica napus; conditions: for Rape plant response rating: scale of 0 to 10 where 0 is no effect and 10 is complete control
Summary of the method: as §1

duck salad = experiment: Test B flood test duck salad; assay type: in vivo, Heteranthera limosa
Summary of the method: (§2)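 Plants were grown to the 2-leaf stage before treatment with test chemical, then held in a greenhouse for twelve to sixteen days. Injury was visually rated against untreated controls on a 0–10 scale, where 0 is no effect and 10 is complete control.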

surinam grass = experiment: Test B pre/postemergence surinam grass; assay type: in vivo, Brachiaria decumbens
Summary of the method: as §1

smallflower flatsedge = experiment: Test B flood test smallflower flatsedge; assay type: in vivo, Cyperus difformis
Summary of the method: as §2

wild oat = experiment: Test B pre/postemergence wild oat; assay type: in vivo, Avena fatua; conditions: for Wild oats plant response rating: scale of 0 to 10 where 0 is no effect and 10 is complete control
Summary of the method: as §1

rice = experiment: Test B flood test rice; assay type: in vivo, Oryza sativa
Summary of the method: as §2

velvetleaf = experiment: Test B pre/postemergence velvetleaf; assay type: in vivo, Abutilon theophrasti; conditions: for Velvetleaf plant response rating: scale of 0 to 10 where 0 is no effect and 10 is complete control
Summary of the method: as §1

cocklebur = experiment: Test B pre/postemergence cocklebur; assay type: in vivo, Xanthium strumarium; conditions: for Cocklebur plant response rating: scale of 0 to 10 where 0 is no effect and 10 is complete control
Summary of the method: as §1

sugar beet = experiment: Test B pre/postemergence sugar beet; assay type: in vivo, Beta vulgaris; conditions: for Sugarbeets plant response rating: scale of 0 to 10 where 0 is no effect and 10 is complete control
Summary of the method: as §1

corn = experiment: Test B pre/postemergence corn; assay type: in vivo, Zea mays; conditions: for Corn plant response rating: scale of 0 to 10 where 0 is no effect and 10 is complete control
Summary of the method: as §1

bamyardgrass = experiment: Test B flood test barnyardgrass; assay type: in vivo, Echinochloa crus-galli
Summary of the method: as §2

soybean = experiment: Test B pre/postemergence soybean; assay type: in vivo, Glycine max
Summary of the method: as §1

bedstraw = experiment: Test B pre/postemergence bedstraw; assay type: in vivo, Galium aparine
Summary of the method: as §1

crabgrass = experiment: Test B pre/postemergence crabgrass; assay type: in vivo, Digitaria sanguinalis; conditions: for Crabgrass plant response rating: scale of 0 to 10 where 0 is no effect and 10 is complete control
Summary of the method: as §1

pigweed = experiment: Test B pre/postemergence pigweed; assay type: in vivo, Amaranthus retroflexus; conditions: for Redroot pigweed plant response rating: scale of 0 to 10 where 0 is no effect and 10 is complete control
Summary of the method: as §1

[1] = Postemergence, Rate 125 g/ha, scale 0 to 10, 0 is no effect, 10 is complete control
[2] = Preemergence, Rate 62 g/ha, scale 0 to 10 (0 no effect, 10 complete control)
[3] = Rate 500 g/ha, Postemergence, scale 0 to 10, 0 no effect, 10 complete control
[4] = Postemergence (flood test), Rate 125 g/ha, scale 0 to 10, 0 is no effect, 10 is complete control
[5] = Rate 62 g/ha, Postemergence (flood test species), scale of 0 to 10 where 0 is no effect and 10 is complete control
[6] = Rate 500 g/ha, listed under Postemergence (flood test species), scale 0 to 10, 0 no effect, 10 complete control
[7] = Preemergence, Rate 250 g/ha, scale of 0 to 10 where 0 is no effect and 10 is complete control
[8] = Preemergence, Rate 500 g/ha, scale of 0 to 10 where 0 is no effect and 10 is complete control
[9] = Rate 62 g/ha, Postemergence, scale of 0 to 10 where 0 is no effect and 10 is complete control
[10] = Rate 250 g/ha, Postemergence, scale of 0 to 10 where 0 is no effect and 10 is complete control

CC(C)N(C(=O)n1oc(=O)n(C2CCCO2)c1=O)c1ccc(F)cc1 (stereo not drawn) [Compound 345]
0: Plant response rating, Morningglory (morningglory; [1]) | Plant response rating, Morningglory (morningglory; [2]) | Morningglory plant response rating (0 to 10 scale) (morningglory; Preemergence, Rate 125 g/ha) | Morningglory plant response rating (morningglory; Preemergence, Rate 250 g/ha) | Morningglory plant response rating (morningglory; Preemergence, Rate 500 g/ha) | Morningglory plant response rating (morningglory; Rate 62 g/ha, Postemergence) | Plant response rating, Morningglory (morningglory; [3]) | Plant response rating, Rape (rape; [1]) | Plant response rating, Rape (rape; [2]) | Rape plant response rating (0 to 10 scale) (rape; Preemergence, Rate 125 g/ha) | Rape plant response rating (rape; Preemergence, Rate 250 g/ha) | Rape plant response rating (rape; Preemergence, Rate 500 g/ha) | Rape plant response rating (rape; Rate 62 g/ha, Postemergence) | Plant response rating, Rape (rape; [3]) | Plant response rating, Ducksalad (duck salad; [4]) | Ducksalad plant response rating (duck salad; [5]) | Plant response rating, Ducksalad (duck salad; [6]) | Plant response rating, B. signalgrass (surinam grass; [1]) | Plant response rating, B. signalgrass (surinam grass; [2]) | B. signalgrass plant response rating (0 to 10 scale, 0 is no effect, 10 is complete control) (surinam grass; Preemergence, Rate 125 g/ha) | B. signalgrass plant response rating (surinam grass; [7]) | B. signalgrass plant response rating (surinam grass; [8]) | B. signalgrass plant response rating (surinam grass; [9]) | Plant response rating, B. signalgrass (surinam grass; [10]) | Plant response rating, B. signalgrass (surinam grass; [3]) | Plant response rating, S. Flatsedge (smallflower flatsedge; [4]) | S. Flatsedge plant response rating (smallflower flatsedge; [5]) | Plant response rating, S. Flatsedge (smallflower flatsedge; [6]) | Plant response rating, Wild oats (wild oat; [1]) | Plant response rating, Wild oats (wild oat; [2]) | Wild oats plant response rating (0 to 10 scale) (wild oat; Preemergence, Rate 125 g/ha) | Wild oats plant response rating (wild oat; Preemergence, Rate 250 g/ha) | Wild oats plant response rating (wild oat; Preemergence, Rate 500 g/ha) | Wild oats plant response rating (wild oat; Rate 62 g/ha, Postemergence) | Plant response rating, Wild oats (wild oat; [3]) | Plant response rating, Rice (rice; [4]) | Rice plant response rating (rice; [5]) | Plant response rating, Rice (rice; [6]) | Plant response rating, Velvetleaf (velvetleaf; [1]) | Plant response rating, Velvetleaf (velvetleaf; [2]) | Velvetleaf plant response rating (0 to 10 scale) (velvetleaf; Preemergence, Rate 125 g/ha) | Velvetleaf plant response rating (velvetleaf; Preemergence, Rate 250 g/ha) | Velvetleaf plant response rating (velvetleaf; Preemergence, Rate 500 g/ha) | Velvetleaf plant response rating (velvetleaf; Rate 62 g/ha, Postemergence) | Plant response rating, Velvetleaf (velvetleaf; [3]) | Plant response rating, Cocklebur (cocklebur; [1]) | Plant response rating, Cocklebur (cocklebur; [2]) | Cocklebur plant response rating (0 to 10 scale) (cocklebur; Preemergence, Rate 125 g/ha) | Cocklebur plant response rating (cocklebur; Preemergence, Rate 250 g/ha) | Cocklebur plant response rating (cocklebur; Preemergence, Rate 500 g/ha) | Cocklebur plant response rating (cocklebur; Rate 62 g/ha, Postemergence) | Plant response rating, Cocklebur (cocklebur; [3]) | Plant response rating, Sugarbeets (sugar beet; [1]) | Plant response rating, Sugarbeets (sugar beet; [2]) | Sugarbeets plant response rating (0 to 10 scale) (sugar beet; Preemergence, Rate 125 g/ha) | Sugarbeets plant response rating (sugar beet; Preemergence, Rate 250 g/ha) | Sugarbeets plant response rating (sugar beet; Preemergence, Rate 500 g/ha) | Sugarbeets plant response rating (sugar beet; Rate 62 g/ha, Postemergence) | Plant response rating, Sugarbeets (sugar beet; [3]) | Plant response rating, Corn (corn; [1]) | Plant response rating, Corn (corn; [2]) | Corn plant response rating (0 to 10 scale) (corn; Preemergence, Rate 125 g/ha) | Corn plant response rating (corn; Preemergence, Rate 250 g/ha) | Corn plant response rating (corn; Preemergence, Rate 500 g/ha) | Corn plant response rating (corn; Rate 62 g/ha, Postemergence) | Plant response rating, Corn (corn; [3]) | Plant response rating, Barnyardgrass (bamyardgrass; [4]) | Barnyardgrass plant response rating (bamyardgrass; [5]) | Plant response rating, Barnyardgrass (bamyardgrass; Rate 250 g/ha, Postemergence (flood test species), scale of 0 to 10 where 0 is no effect and 10 is complete control) | Plant response rating, Barnyardgrass (bamyardgrass; [6]) | Plant response rating, Soybean (soybean; [1]) | Soybean plant response rating (0 to 10 scale) (soybean; Preemergence, Rate 125 g/ha) | Soybean plant response rating (soybean; [9]) | Plant response rating, Soybean (soybean; [3]) | Plant response rating, Bedstraw (bedstraw; [1]) | Plant response rating, Bedstraw (bedstraw; [2]) | Bedstraw plant response rating (0 to 10 scale) (bedstraw; Preemergence, Rate 125 g/ha) | Bedstraw plant response rating (bedstraw; [7]) | Bedstraw plant response rating (bedstraw; [8]) | Bedstraw plant response rating (bedstraw; [9]) | Plant response rating, Bedstraw (bedstraw; [10]) | Plant response rating, Bedstraw (bedstraw; [3]) | Plant response rating, Crabgrass (crabgrass; [1]) | Plant response rating, Crabgrass (crabgrass; [2]) | Crabgrass plant response rating (0 to 10 scale) (crabgrass; Preemergence, Rate 125 g/ha) | Crabgrass plant response rating (crabgrass; Preemergence, Rate 250 g/ha) | Crabgrass plant response rating (crabgrass; Preemergence, Rate 500 g/ha) | Crabgrass plant response rating (crabgrass; Rate 62 g/ha, Postemergence) | Plant response rating, Crabgrass (crabgrass; [3]) | Plant response rating, Redroot pigweed (pigweed; [1]) | Plant response rating, Redroot pigweed (pigweed; [2]) | Redroot pigweed plant response rating (0 to 10 scale) (pigweed; Preemergence, Rate 125 g/ha) | Redroot pigweed plant response rating (pigweed; Preemergence, Rate 250 g/ha) | Redroot pigweed plant response rating (pigweed; Preemergence, Rate 500 g/ha) | Redroot pigweed plant response rating (pigweed; Rate 62 g/ha, Postemergence) | Plant response rating, Redroot pigweed (pigweed; [3])
